According to the supplement of paper PMC5908809:

Experiments:
[1] = test system: normal NK cells expanded with K562-aAPC; assay: drug sensitivity score (DSS) (DSS units); higher = more sensitive; extreme values may be limits of the assay; settings: 72 h; IL-2 2.5 ng/mL
Experimental: (§1)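 Drug sensitivity and resistance testing on K562-aAPC-expanded normal NK cells: 5 concentrations (10-fold steps over a 10,000-fold range), 72 h at 37 °C, viability by CellTiter-Glo normalised to DMSO and benzethonium chloride controls; DSS from the fitted curve.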

NKL (IL-2 2.5 ng/mL) [2] = assay: percent inhibition of viability; higher = more inhibition; settings: 72 h
NK-92 (IL-2 2.5 ng/mL) [3] = assay: as above; settings: 72 h
DERL-7 (IL-2 2.5 ng/mL) [4] = assay: as above; settings: 72 h
[5] = test system: normal primary NK cells, pool 1 (3 donors) (IL-2 2.5 ng/mL); assay: as above; settings: 72 h
YT (IL-2 2.5 ng/mL) [6] = assay: as above; settings: 72 h
SNK-6 (IL-2 2.5 ng/mL) [7] = assay: as above; settings: 72 h
KAI3 (IL-2 2.5 ng/mL) [8] = assay: as above; settings: 72 h
[9] = test system: normal primary NK cells, pool 1 (3 donors), resting (IL-2 0 ng/mL); assay: as above; settings: 72 h
[10] = test system: normal primary NK cells, pool 3 (3 donors) (IL-2 2.5 ng/mL); assay: as above; settings: 72 h
IMC-1 (IL-2 20 ng/mL) [11] = assay: as above; settings: 72 h
NK-YS (IL-2 2.5 ng/mL) [12] = assay: as above; settings: 72 h
KHYG-1 (IL-2 2.5 ng/mL) [13] = assay: as above; settings: 72 h
[14] = test system: normal primary NK cells, pool 2 (3 donors) (IL-2 2.5 ng/mL); assay: as above; settings: 72 h
[15] = test system: normal NK cells expanded with K562-aAPC; assay: as above; settings: 72 h, IL-2 2.5 ng/mL
Experimental: as §1

NKL (IL-2 2.5 ng/mL) [16] = assay: drug sensitivity score (DSS) (DSS units); higher = more sensitive; extreme values may be limits of the assay; settings: 72 h
NK-92 (IL-2 2.5 ng/mL) [17] = assay: as above; settings: 72 h
DERL-7 (IL-2 2.5 ng/mL) [18] = assay: as above; settings: 72 h
[19] = test system: normal primary NK cells, pool 1 (3 donors) (IL-2 2.5 ng/mL); assay: as above; settings: 72 h
YT (IL-2 2.5 ng/mL) [20] = assay: as above; settings: 72 h
SNK-6 (IL-2 2.5 ng/mL) [21] = assay: as above; settings: 72 h
KAI3 (IL-2 2.5 ng/mL) [22] = assay: as above; settings: 72 h
[23] = test system: normal primary NK cells, pool 1 (3 donors), resting (IL-2 0 ng/mL); assay: as above; settings: 72 h
[24] = test system: normal primary NK cells, pool 3 (3 donors) (IL-2 2.5 ng/mL); assay: as above; settings: 72 h
IMC-1 (IL-2 20 ng/mL) [25] = assay: as above; settings: 72 h
NK-YS (IL-2 2.5 ng/mL) [26] = assay: as above; settings: 72 h
KHYG-1 (IL-2 2.5 ng/mL) [27] = assay: as above; settings: 72 h
[28] = test system: normal primary NK cells, pool 2 (3 donors) (IL-2 2.5 ng/mL); assay: as above; settings: 72 h

CCc1c(C(=O)C(N)=O)c2c(OCC(=O)O)cccc2n1Cc1ccccc1 [Varespladib] (max concentration tested 10000 nM)
Settings	drug sensitivity score
DERL-7 (IL-2 2.5 ng/mL) [18]	0
IMC-1 (IL-2 20 ng/mL) [25]	0
KAI3 (IL-2 2.5 ng/mL) [22]	0.68
KHYG-1 (IL-2 2.5 ng/mL) [27]	0
NK-92 (IL-2 2.5 ng/mL) [17]	1.34
NK-YS (IL-2 2.5 ng/mL) [26]	0.22
NKL (IL-2 2.5 ng/mL) [16]	0
SNK-6 (IL-2 2.5 ng/mL) [21]	0
YT (IL-2 2.5 ng/mL) [20]	0.02
[1]	0
[19]	0
[23]	2.05
[24]	0
[28]	0

percent inhibition of viability [%]
Settings	1 nM	10 nM	100 nM	1000 nM	10000 nM
DERL-7 (IL-2 2.5 ng/mL) [4]	-6.07	2.76	-0.45	-1.82	-5.52
IMC-1 (IL-2 20 ng/mL) [11]	-6.89	-8.73	-5.72	-2.45	-3.95
KAI3 (IL-2 2.5 ng/mL) [8]	-1.85	-2.11	-10.8	-0.18	21.5
KHYG-1 (IL-2 2.5 ng/mL) [13]	-3.76	-11.3	-0.03	8.53	2.8
NK-92 (IL-2 2.5 ng/mL) [3]	-21.4	-19.5	-14.8	-0.75	31.5
NK-YS (IL-2 2.5 ng/mL) [12]	-2.2	-6.12	-3.85	2.05	12.8
NKL (IL-2 2.5 ng/mL) [2]	-9.5	-5.06	-13.2	2.87	-9.38
SNK-6 (IL-2 2.5 ng/mL) [7]	-7.52	-21.8	-13.8	-2.84	6.58
YT (IL-2 2.5 ng/mL) [6]	-8.21	-8.83	-14.4	-11.3	13.2
[5]	-5.21	-8.55	9.76	0.64	7.95
[9]	-21.1	-19.8	7.01	11.6	26.9
[10]	-8.31	-9.39	-3.85	-0.09	3.01
[14]	-5.85	-4.05	1.84	6.26	5.5
[15]	-11.2	-11.6	-12.4	3.91	4.13

Cc1cc(Nc2cc(N3CCN(C)CC3)nc(/C=C/c3ccccc3)n2)n[nH]1 [ENMD-2076] (max concentration tested 10000 nM)
Settings	drug sensitivity score
DERL-7 (IL-2 2.5 ng/mL) [18]	15
IMC-1 (IL-2 20 ng/mL) [25]	14.2
KAI3 (IL-2 2.5 ng/mL) [22]	18.1
KHYG-1 (IL-2 2.5 ng/mL) [27]	15.4
NK-92 (IL-2 2.5 ng/mL) [17]	11.8
NK-YS (IL-2 2.5 ng/mL) [26]	15.4
NKL (IL-2 2.5 ng/mL) [16]	14
SNK-6 (IL-2 2.5 ng/mL) [21]	12.2
YT (IL-2 2.5 ng/mL) [20]	10.1
[1]	12.9
[19]	8.98
[23]	7.17
[24]	7.76
[28]	9.3

percent inhibition of viability [%]
Settings	1 nM	10 nM	100 nM	1000 nM	10000 nM
DERL-7 (IL-2 2.5 ng/mL) [4]	-3.97	1.55	8.93	73.3	100
IMC-1 (IL-2 20 ng/mL) [11]	5.76	6.97	6.68	69	99.3
KAI3 (IL-2 2.5 ng/mL) [8]	11.4	13.8	24.2	81.2	103
KHYG-1 (IL-2 2.5 ng/mL) [13]	3.13	4.35	5.27	79.3	103
NK-92 (IL-2 2.5 ng/mL) [3]	11.8	8.87	7.47	52.2	100
NK-YS (IL-2 2.5 ng/mL) [12]	4	7.48	10.6	76.2	84.6
NKL (IL-2 2.5 ng/mL) [2]	2.47	5.63	17.7	61.2	96.1
SNK-6 (IL-2 2.5 ng/mL) [7]	5.5	2.27	-27.8	68.5	79.8
YT (IL-2 2.5 ng/mL) [6]	5.28	5.36	3.17	31.5	101
[5]	-3.71	-10.8	-1.53	25	93.9
[9]	-0.34	-9.97	-7.43	16.7	80.9
[10]	-2.94	-6.14	-2.82	14.7	96.1
[14]	-1.71	3	0.94	31	89.3
[15]	2.38	-3.79	7	60.5	99.8
